Assay results published in patent publication US20140005412A1, “TREATMENT OF ARTERIAL AGEING BY HMG CoA REDUCTASE INHIBITOR” (FARMICOM PHARMACEUTICAL COMPANY D.O.O., priority 2011, published 2014).

Key:
[1] = blood plasma; cited from earlier work
[2] = test system: right common carotid artery; experiment: Ultrasound measurement of pulse-wave velocity (PWV); format: in vivo, human; settings: for PWV, after treatment: after 1 month (30 days) treatment; for PWV, improvement: after 1 month vs before treatment
Protocol: (§1) Fifty apparently healthy male individuals (42.6±1.9 years) were recruited in double blind, randomized study. Inclusion criteria were: The control group (n=25) received placebo, while the test group (n=25) received subtherapeutic daily dose of fluvastatin sodium-10 mg daily (the recommended therapeutic daily dose is 40 to 80 mg) during a period of 1 month-30 days. All subjects underwent clinical examination, blood pressure measurements ([…] automated sphygmomanometer) and ultrasound measurement of flow-mediated dilatation of brachial artery (FMD), pulse-wave velocity (PWV) and β-stiffness of carotid artery at inclusion (0th day) and after 1 month (30th day) of the study. Fasting blood samples were taken at the beginning and at the end of the study for laboratory analysis. Blood glucose, electrolytes and cholesterol were obtained using the VITRO 5.1 FS Chemical system (Ortho Clinical Diagnostics, Inc.). The measurements of PWV and β-stiffness were performed on the right common carotid artery. The Aloka ultrasound device was also equipped with special software for automatic determination of the PWV and beta-stiffness through the analysis of pulse waves (Carerj S et al. Normal vascular aging evaluated by a new tool: e-tracking. Eur J Echocardiography 2006; suppl: S 49). All values were expressed as arithmetic mean±SEM and were normally distributed. Differences between values recorded at the beginning (0th day) and at the end of the study (30th day) were determined by one-way analysis of variance (ANOVA). When a significant interaction was present, the Bonferroni post-test was performed. […] All statistical analyses were performed using Graph Pad Prism 5.0 software.

[3] = test system: right common carotid artery; experiment: Ultrasound measurement of β-stiffness of carotid artery; format: in vivo, human; settings: for β-stiffness, after treatment: after 1 month (30 days) treatment; for β-stiffness, improvement: after 1 month vs before treatment
Protocol: as §1

brachial artery = experiment: Ultrasound measurement of flow-mediated dilatation of brachial artery (FMD), endothelial function; format: in vivo, human; settings: for FMD, after treatment: after 1 month (30 days) treatment; for FMD, improvement: after 1 month vs before treatment
Protocol: Fifty apparently healthy male individuals (42.6±1.9 years) were recruited in double blind, randomized study. Inclusion criteria were: The control group (n=25) received placebo, while the test group (n=25) received subtherapeutic daily dose of fluvastatin sodium-10 mg daily (the recommended therapeutic daily dose is 40 to 80 mg) during a period of 1 month-30 days. All subjects underwent clinical examination, blood pressure measurements ([…] automated sphygmomanometer) and ultrasound measurement of flow-mediated dilatation of brachial artery (FMD), pulse-wave velocity (PWV) and β-stiffness of carotid artery at inclusion (0th day) and after 1 month (30th day) of the study. Fasting blood samples were taken at the beginning and at the end of the study for laboratory analysis. Blood glucose, electrolytes and cholesterol were obtained using the VITRO 5.1 FS Chemical system (Ortho Clinical Diagnostics, Inc.). Ultrasound measurements were performed by a single examiner using Aloka ProSound Alpha 10 echo-machine. Endothelial function was measured by means of FMD on the brachial artery according to FMD guidelines (Corretti M C et al. Guidelines for the ultrasound assessment of endothelial-dependent flow-mediated vasodilation of the brachial artery: a report of the International Brachial Artery Reactivity Task Force. J Am Coll Cardiol 2002; 39: 257-65). The echo-machine continuously tracked and recorded the brachial artery diameter. Following the measurement of baseline brachial artery diameter (1 min), the forearm blood pressure cuff was inflated to 50 mmHg above the systolic pressure for 4 min. After the occlusion period, the cuff was rapidly deflated, inducing reactive hyperemia, and the brachial artery diameter was recorded for 3 min. At the end of the measurement, the machine automatically provided the values of FMD. All values were expressed as arithmetic mean±SEM and were normally distributed. Differences between values recorded at the beginning (0th day) and at the end of the study (30th day) were determined by one-way analysis of variance (ANOVA). When a significant interaction was present, the Bonferroni post-test was performed. […] All statistical analyses were performed using Graph Pad Prism 5.0 software.

arterial wall [4] = experiment: "Biological" arterial age according to age-related normogram; format: in vivo, human
Text: It is important to emphasize that there is a similarity between the terms morphological or structural which are used to describe the same characteristics by different authors but basically disclose the same characteristics of arterial wall. All three above mentioned methods FMD, PWV, and β-stiffness are standard in the art and generally widely accepted methods for estimation of functional or morphological characteristics of arteries. When administering the pharmaceutical composition according to the present invention the significant and unexpected improvement in all above mentioned characteristics are observed. Furthermore, by using age-related normogram obtained on large sample of apparently healthy subjects—who have a low cardiovascular risk as defined above—the estimation of “biological” arterial age can be determined. […] By using age-related normogram (according to the methods described in Jurasic M J et al. Beta stiffness—setting age standards. Acta Clin Croat 2009; 48:253-8; and Carerj S. Normal vascular ageing evaluated by a new tool: e-tracking. Eur J Echocardiography 2006; suppl 1:S49. Carerj S et al. Eur J Echocardiography 2006; suppl: S 49) the “biological” arterial age in participants according to Example 1 after 1 month of treatment and according to Example 2 after 5, 7 and 8 months after discontinuation of treatment was calculated (FIG. 3).

[5] = Fasting blood laboratory analysis (cholesterol, triglycerides, glucose); format: in vivo, human; settings: Example 1, n=25, 10 mg daily, mean ± SEM
Text: All subjects underwent clinical examination, blood pressure measurements ([…] automated sphygmomanometer) and ultrasound measurement of flow-mediated dilatation of brachial artery (FMD), pulse-wave velocity (PWV) and β-stiffness of carotid artery at inclusion (0th day) and after 1 month (30th day) of the study. Fasting blood samples were taken at the beginning and at the end of the study for laboratory analysis. Blood glucose, electrolytes and cholesterol were obtained using the VITRO 5.1 FS Chemical system (Ortho Clinical Diagnostics, Inc.).

arterial wall [6] = experiment: "Biological" arterial age according to age-related normogram; format: in vivo, human; remark: listed apart in the source
[7] = Example 1 study, 10 mg, after 30 days of treatment
[8] = Example 2, rest period 5 months
[9] = Example 2, rest period 7 months
[10] = Example 2, rest period 8 months
[11] = Example 4, 10 mg daily, after 1 month treatment period
[12] = Example 5, rest period 3 months
[13] = Example 5, rest period 5 months
[14] = Example 5, rest period 8 months
[15] = Example 6, ten participants, 10 mg daily, 1. intervention, before
[16] = Example 6, 1. intervention, after 1 month of treatment
[17] = Example 6, 2. intervention (repetition), after 1 month of treatment
[18] = Example 6, 2. intervention (repetition), before, after rest period of 12 months

SMILES: CC(C)n1c(/C=C/C(O)CC(O)CC(=O)O)c(-c2ccc(F)cc2)c2ccccc21 (stereo not drawn) [Fluvastatin sodium, fluvastatin sodium]
- half-life time (t1/2) [1]: about 2.5 hours
- PWV, after treatment ([2]; Example 1, 10 mg daily): 5.41 m/s
- PWV, improvement ([2]; Example 1, 10 mg daily): −6.4%
- PWV, before treatment ([2]; Example 1, 10 mg daily): 5.76 m/s
- PWV decreased by [2, 7]: 6.4%
- PWV, residual improvement in % of effect achieved after 1 month of treatment [2, 8]: 29.7%
- PWV, residual improvement in % of effect achieved after 1 month of treatment [2, 9]: 10%
- PWV, residual improvement in % of effect achieved after 1 month of treatment [2, 10]: 1.9%
- PWV decreased by [2, 11]: 10.4%
- PWV, after treatment ([2]; Example 4, 10 mg daily): 5.00 m/s
- PWV, improvement ([2]; Example 4, 10 mg daily): −10.4%
- PWV, before treatment ([2]; Example 4, 10 mg daily): 5.52 m/s
- PWV, residual improvement in % of effect achieved after 1 month of treatment [2, 12]: 55.2%
- PWV, residual improvement in % of effect achieved after 1 month of treatment [2, 13]: 30.1%
- PWV, residual improvement in % of effect achieved after 1 month of treatment [2, 14]: 5.2%
- PWV [2, 15]: 5.5 ± 0.4 m/s
- PWV [2, 16]: 5.1 ± 0.4 m/s
- PWV [2, 17]: 5.3 ± 0.3 m/s
- PWV [2, 18]: 5.6 ± 0.3 m/s
- β-stiffness, after treatment ([3]; Example 1, 10 mg daily): 6.40 U
- β-stiffness, improvement ([3]; Example 1, 10 mg daily): −10.9%
- β-stiffness, before treatment ([3]; Example 1, 10 mg daily): 7.10 U
- β-stiffness decreased by [3, 7]: 10.9%
- β-stiffness, residual improvement in % of effect achieved after 1 month of treatment [3, 8]: 30.4%
- β-stiffness, residual improvement in % of effect achieved after 1 month of treatment [3, 9]: 9%
- β-stiffness, residual improvement in % of effect achieved after 1 month of treatment [3, 10]: 0.9%
- β-stiffness of the carotid artery decreased by [3, 11]: 12.7%
- β-stiffness, after treatment ([3]; Example 4, 10 mg daily): 6.10 U
- β-stiffness, improvement ([3]; Example 4, 10 mg daily): −12.7%
- β-stiffness, before treatment ([3]; Example 4, 10 mg daily): 6.88 U
- β-stiffness, residual improvement in % of effect achieved after 1 month of treatment [3, 12]: 50.1%
- β-stiffness, residual improvement in % of effect achieved after 1 month of treatment [3, 13]: 33.6%
- β-stiffness, residual improvement in % of effect achieved after 1 month of treatment [3, 14]: 3.1%
- β-stiffness [3, 15]: 6.4 ± 0.8 U
- β-stiffness [3, 16]: 5.7 ± 0.7 U
- β-stiffness [3, 17]: 6.0 ± 0.6 U
- β-stiffness [3, 18]: 6.6 ± 0.6 U
- FMD, after treatment (brachial artery; Example 1, 10 mg daily): 4.39%
- FMD, improvement (brachial artery; Example 1, 10 mg daily): +91.0%
- FMD, before treatment (brachial artery; Example 1, 10 mg daily): 2.31%
- FMD increased by (brachial artery; Example 1 study (50 subjects, double-blind), 10 mg, after 30 days of treatment): 91.0%
- FMD, residual improvement in % of effect achieved after 1 month of treatment (brachial artery; Example 2 (participants of Example 1), rest period 5 months): 53.3%
- FMD, residual improvement in % of effect achieved after 1 month of treatment (brachial artery; [9]): 33%
- FMD, residual improvement in % of effect achieved after 1 month of treatment (brachial artery; [10]): 10.5%
- FMD increased by (brachial artery; [11]): 120.8%
- FMD, after treatment (brachial artery; Example 4, 10 mg daily): 5.30%
- FMD, improvement (brachial artery; Example 4, 10 mg daily): +120.8%
- FMD, before treatment (brachial artery; Example 4, healthy males n=15, 10 mg daily): 2.40%
- FMD, residual improvement in % of effect achieved after 1 month of treatment (brachial artery; Example 5 (participants of Example 4), rest period 3 months): 73.4%
- FMD, residual improvement in % of effect achieved after 1 month of treatment (brachial artery; [13]): 55.2%
- FMD, residual improvement in % of effect achieved after 1 month of treatment (brachial artery; [14]): 16.3%
- FMD (brachial artery; [15]): 3.5 ± 0.6%
- FMD (brachial artery; [16]): 5.3 ± 0.6%
- FMD (brachial artery; [17]): 5.7 ± 0.2%
- FMD (brachial artery; [18]): 3.9 ± 0.8%
- Arterial age according to age normogram, after treatment (arterial wall [4]; Example 1, 10 mg daily, after 1 month treatment): 38.2 years
- Arterial age according to age normogram, improvement (arterial wall [4]; Example 1, 10 mg daily, after 1 month vs before treatment): −6.8 years
- Arterial age according to age normogram, before treatment (arterial wall [4]; Example 1, 10 mg daily, before treatment): 45.0 years
- Arterial age according to age-related normogram (arterial wall [4]; [8]): 42.3 years
- Arterial age according to age-related normogram, difference (in brackets) to before treatment (arterial wall [4]; [8]): −2.7 years
- Arterial age according to age-related normogram, difference (in brackets) to before treatment (arterial wall [4]; [10]): −0.5 years
- HDL cholesterol ([5]; 1st day (baseline)): 1.2 ± 0.1 mmol/L
- LDL cholesterol ([5]; 1st day (baseline)): 3.7 ± 0.2 mmol/L
- Total cholesterol ([5]; 1st day (baseline)): 5.7 ± 0.2 mmol/L
- Triglycerides ([5]; 1st day (baseline)): 1.6 ± 0.2 mmol/L
- HDL cholesterol ([5]; 30th day): 1.2 ± 0.1 mmol/L
- LDL cholesterol ([5]; 30th day): 3.6 ± 0.2 mmol/L
- Total cholesterol ([5]; 30th day): 5.4 ± 0.2 mmol/L
- Triglycerides ([5]; 30th day): 1.6 ± 0.3 mmol/L
- Arterial age according to age-related normogram (arterial wall [6]; [9]): 43.6 years
- Arterial age according to age-related normogram, difference (in brackets) to before treatment (arterial wall [6]; [9]): −1.4 years
- Arterial age according to age-related normogram (arterial wall [6]; [10]): 44.5 years
- Arterial age according to age-related normogram, after treatment (arterial wall [6]; Example 4, 10 mg daily, after 1 month treatment): 32.0 years
- Arterial age according to age-related normogram, improvement (arterial wall [6]; Example 4, 10 mg daily, after 1 month vs before treatment): −9.0 years
- Arterial age according to age-related normogram, before treatment (arterial wall [6]; Example 4, 10 mg daily, before treatment): 41.0 years
- Arterial age according to age-related normogram (arterial wall [6]; [12]): 34.2 years
- Arterial age according to age-related normogram, difference (in brackets) to before treatment (arterial wall [6]; [12]): −6.8 years
- Arterial age according to age-related normogram (arterial wall [6]; [13]): 36.4 years
- Arterial age according to age-related normogram, difference (in brackets) to before treatment (arterial wall [6]; [13]): −4.6 years
- Arterial age according to age-related normogram (arterial wall [6]; [14]): 40.0 years
- Arterial age according to age-related normogram, difference (in brackets) to before treatment (arterial wall [6]; [14]): −1.0 years
